Laboratory results published in US20130296383A1, “DECAHYDRO-1,4-METHANONAPHTHALEN CARBOXAMIDES” (BAYER INTELLECTUAL PROPERTY GMBH, priority 2010, published 2013).

How the values were obtained:
[1] = log P by HPLC on reversed phase columns (EEC directive 79/831 Annex V.A8), method [b]; type: physicochemical
Experimental: Calibration was done with not branched alkan2-ones (with 3 to 16 carbon atoms) with known log P-values (measurement of log P values using retention times with linear interpolation between successive alkanones). lambda-maX-values were determined using UV-spectra from 200 nm to 400 nm and the peak values of the chromatographic signals.

[2] = test system: Blumeria graminis f.sp. hordei; assay: Blumeria test (barley) / preventive; type: in vivo; conditions: 500 ppm of active ingredient, evaluated 7 days after inoculation
Experimental: Blumeria Test (Barley)/Preventive
(§1) To produce a suitable preparation of active compound, 1 part by weight of active compound or active compound combination is mixed with the stated amounts of solvent and emulsifier, and the concentrate is diluted with water to the desired concentration.
(§2) To test for preventive activity, young plants are sprayed with the preparation of active compound or active compound combination at the stated rate of application.
After the spray coating has been dried, the plants are dusted with spores of Blumeria graminis f.sp. hordei.
The plants are placed in the greenhouse at a temperature of approximately 18° C. and a relative atmospheric humidity of approximately 80% to promote the development of mildew pustules.
(§3) The test is evaluated 7 days after the inoculation. 0% means an efficacy which corresponds to that of the untreated control, while an efficacy of 100% means that no disease is observed.

Puccinia recondita = assay: Puccinia test (wheat) / preventive; type: in vivo; conditions: 500 ppm of active ingredient, evaluated 7-9 days after inoculation
Experimental: Puccinia Test (Wheat)/Preventive
(§4) To produce a suitable preparation of active compound, 1 part by weight of active compound is mixed with the stated amounts of solvent and emulsifier, and the concentrate is diluted with water to the desired concentration.
(§5) To test for preventive activity, young plants are sprayed with the preparation of active compound at the stated rate of application. One day after this treatment, the plants are inoculated with an aqueous spore suspension of Puccinia recondita. The plants remain for 48 hours in an incubation cabinet at 22° C. and a relative atmospheric humidity of 100%. Then the plants are placed in a greenhouse at a temperature of approximately 20° C. and a relative atmospheric humidity of approximately 80%.
(§6) The test is evaluated 7-9 days after the inoculation. 0% means an efficacy which corresponds to that of the untreated control while an efficacy of 100% means that no disease is observed.

Venturia inaequalis = assay: Venturia test (apples) / preventive; type: in vivo; conditions: 100 ppm of active ingredient, evaluated 10 days after inoculation
Experimental: Venturia Test (Apples)/Preventive
as §4
To test for preventive activity, young plants are sprayed with the preparation of active compound at the stated rate of application. After the spray coating has dried on, the plants are inoculated with an aqueous conidia suspension of the causal agent of apple scab (Venturia inaequalis) and then remain for 1 day in an incubation cabinet at approximately 20° C. and a relative atmospheric humidity of 100%.
The plants are then placed in a greenhouse at approximately 21° C. and a relative atmospheric humidity of approximately 90%.
The test is evaluated 10 days after the inoculation. 0% means an efficacy which corresponds to that of the untreated control, while an efficacy of 100% means that no disease is observed.

Septoria tritici = Septoria tritici test (wheat) / preventive; type: in vivo; conditions: 500 ppm of active ingredient, evaluated 21 days after inoculation
Experimental: Septoria Tritici-Test (Wheat)/Preventive
as §1, §2
After the spray coating has been dried, the plants are sprayed with a spore suspension of Septoria tritici. The plants remain for 48 hours in an incubation cabinet at approximately 20° C. and a relative atmospheric humidity of approximately 100% and afterwards for 60 hours at approximately 15° C. in a translucent incubation cabinet at a relative atmospheric humidity of approximately 100%.
The plants are placed in the greenhouse at a temperature of approximately 15° C. and a relative atmospheric humidity of approximately 80%.
The test is evaluated 21 days after the inoculation. 0% means an efficacy which corresponds to that of the untreated control, while an efficacy of 100% means that no disease is observed.

Sphaerotheca fuliginea = assay: Sphaerotheca test (cucumber) / preventive; type: in vivo; conditions: 500 ppm of active ingredient, evaluated 7 days after inoculation
Experimental: Sphaerotheca Test (Cucumber)/Preventive
as §4
To test for preventive activity, young plants are sprayed with the preparation of active compound at the stated rate of application. One day after this treatment, the plants are inoculated with an aqueous spore suspension of Sphaerotheca fuliginea. Then the plants are placed in a greenhouse at approximately 23° C. and a relative atmospheric humidity of approximately 70%.
as §3

Alternaria solani = assay: Alternaria test (tomato) / preventive; type: in vivo; conditions: 500 ppm of active ingredient, evaluated 7 days after inoculation
Experimental: Alternaria Test (Tomato)/Preventive
as §4
To test for preventive activity, young plants are sprayed with the preparation of active compound at the stated rate of application. One day after this treatment, the plants are inoculated with an aqueous spore suspension of Alternaria solani. The plants remain for one day in an incubation cabinet at approximately 22° C. and a relative atmospheric humidity of 100%. Then the plants are placed in an incubation cabinet at approximately 20° C. and a relative atmospheric humidity of 96%.
The test is evaluated 7 days after the inoculation. 0% means an efficacy which corresponds to that of the untreated control while an efficacy of 100% means that no disease is observed.

Pyrenophora teres = assay: Pyrenophora test (barley) / preventive; type: in vivo; conditions: 500 ppm of active ingredient, evaluated 7-9 days after inoculation
Experimental: Pyrenophora Test (Barley)/Preventive
as §4
as §5, with “Pyrenophora teres.” for “Puccinia recondita.”
as §6

LogP[b] ([1]; HPLC, pH 2.7, 0.1% formic acid in water / acetonitrile gradient): LogP^[b] = 4.87
chromatographic logP ([1]; reversed phase HPLC columns, pH 2.7, acid): 4.87
SMILES: CC(C)C1C2CCC1C1C(NC(=O)c3c(C(F)F)nn(C)c3F)CCCC21 (stereo not drawn) [Example 1, 3-(difluoromethyl)-5-fluoro-N-(9-isopropyldecahydro-1,4-methanonaphthalen-5-yl)-1-methyl-1H-pyrazole-4-carboxamide]
Eff. % [2]: 100%
Eff. % (Puccinia recondita): 95%
Eff. % (Venturia inaequalis): 100%
Eff. % (Septoria tritici): 90%
Eff. % (Sphaerotheca fuliginea): 100%
Eff. % (Alternaria solani): 95%
Eff. % (Pyrenophora teres): 100%
